Results as given in PubChem BioAssay AID220 (DTP/NCI, 2004).
Values joined by “and” are separate entries in the source; they are usually repeats but may differ in a detail not shown here. Equal entries are not always repeated. Results filed as inconclusive are left out.

System: CD8F1 mice, subcutaneous mammary adenocarcinoma, T/C%
Assay: NCI In Vivo Anticancer Drug Screen. Data for tumor model Mammary Adenocarcinoma CD8F1 (subcutaneous) in CD8F1
Conditions: higher = larger tumour
How it was run: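 Antitumor activity is assessed in transplantable-tumor mice by comparing the treated group with a vehicle-treated control group. Survival or tumor size serves as the measure, reported as T divided by C.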

[1] = endpoint: median tumor weight (est.), dose: 12.5 mg/kg/injection, schedule: Q07DX005 (ip), vehicle: saline
[2] = endpoint: median tumor weight (est.), dose: 25.0 mg/kg/injection, schedule: Q07DX005 (ip), vehicle: saline
[3] = endpoint: median tumor weight (est.), dose: 50.0 mg/kg/injection, schedule: Q07DX005 (ip), vehicle: saline
[4] = endpoint: median tumor weight (est.), dose: 100.0 mg/kg/injection, schedule: Q07DX005 (ip), vehicle: saline
[5] = endpoint: median tumor weight (est.), dose: 12.5 mg/kg/injection, schedule: Q07DX005 (ip), vehicle: saline with Tween-80
[6] = endpoint: median tumor weight (est.), dose: 50.0 mg/kg/injection, schedule: Q07DX005 (ip), vehicle: saline with Tween-80
[7] = endpoint: median tumor weight (est.), dose: 200.0 mg/kg/injection, schedule: Q07DX005 (ip), vehicle: saline with Tween-80
[8] = endpoint: median tumor weight (est.), dose: 400.0 mg/kg/injection, schedule: Q07DX005 (ip), vehicle: saline with Tween-80
[9] = endpoint: median tumor weight (est.), dose: 25.0 mg/kg/injection, schedule: Q07DX005 (ip), vehicle: saline with Tween-80
[10] = endpoint: median tumor weight (est.), dose: 100.0 mg/kg/injection, schedule: Q07DX005 (ip), vehicle: saline with Tween-80

SMILES: O=c1ncccn1[C@@H]1O[C@H](CO)[C@H](O)C1O (some centres not stated)
- T/C (endpoint: median tumor weight change, dose: 1000.0 mg/kg/injection, schedule: Q01DX001 (ip), vehicle: saline): 78 % of control and 89 % of control
- T/C (endpoint: median tumor weight change, dose: 2000.0 mg/kg/injection, schedule: Q01DX001 (ip), vehicle: saline): 95 % of control and 103 % of control

SMILES: COc1cc2c(c(OC)c1OC)-c1c(cc3c(c1OC)OCO3)CC(C)C(C)(O)C2OC(=O)c1ccccc1 (configuration not stated)
- T/C (endpoint: median tumor weight change, dose: 31.0 mg/kg/injection, schedule: Q01DX001 (ip), vehicle: saline + Tween-80 + alcohol): 93 % of control
- T/C (endpoint: median tumor weight change, dose: 125.0 mg/kg/injection, schedule: Q01DX001 (ip), vehicle: saline + Tween-80 + alcohol): 121 % of control
- T/C (endpoint: median tumor weight change, dose: 250.0 mg/kg/injection, schedule: Q01DX001 (ip), vehicle: saline + Tween-80 + alcohol): 95 % of control
- T/C (endpoint: median tumor weight change, dose: 500.0 mg/kg/injection, schedule: Q01DX001 (ip), vehicle: saline + Tween-80 + alcohol): 110 % of control
- T/C (endpoint: median tumor weight change, dose: 900.0 mg/kg/injection, schedule: Q01DX001 (ip), vehicle: saline + alcohol): 96 % of control
- T/C (endpoint: median tumor weight change, dose: 1800.0 mg/kg/injection, schedule: Q01DX001 (ip), vehicle: saline + alcohol): 124 % of control
- T/C (endpoint: median tumor weight change, dose: 3600.0 mg/kg/injection, schedule: Q01DX001 (ip), vehicle: saline + alcohol): 59 % of control

SMILES: Cc1cc(NCCCCCCNc2cc(C)nc3cc(N(C)C)ccc23)c2ccc(N(C)C)cc2n1
- T/C (endpoint: median tumor weight change, dose: 31.0 mg/kg/injection, schedule: Q01DX001 (ip), vehicle: distilled water + Tween-80 + alcohol): 42 % of control
- T/C (endpoint: median tumor weight change, dose: 62.0 mg/kg/injection, schedule: Q01DX001 (ip), vehicle: distilled water + Tween-80 + alcohol): 103 % of control
- T/C (endpoint: median tumor weight change, dose: 125.0 mg/kg/injection, schedule: Q01DX001 (ip), vehicle: distilled water + Tween-80 + alcohol): 36 % of control

SMILES: C[N+](C)(C)c1ncnc2c1ncn2C1CCCO1 (configuration not stated)
- T/C [1]: 85 % of control
- T/C [2]: 89 % of control
- T/C [3]: 87 % of control
- T/C [4]: 92 % of control

SMILES: COc1ccc2c(NCCCCCCCCNc3c4ccccc4nc4cc(OC)ccc34)c3ccccc3nc2c1
- T/C (endpoint: median tumor weight (est.), dose: 0.47 mg/kg/injection, schedule: Q07DX005 (ip), vehicle: other): 42 % of control
- T/C (endpoint: median tumor weight (est.), dose: 0.94 mg/kg/injection, schedule: Q07DX005 (ip), vehicle: other): 63 % of control
- T/C (endpoint: median tumor weight (est.), dose: 1.87 mg/kg/injection, schedule: Q07DX005 (ip), vehicle: other): 152 % of control
- T/C (endpoint: median tumor weight (est.), dose: 1.88 mg/kg/injection, schedule: Q07DX005 (ip), vehicle: other): 50 % of control
- T/C (endpoint: median tumor weight (est.), dose: 3.75 mg/kg/injection, schedule: Q07DX005 (ip), vehicle: other): 53 % of control
- T/C (endpoint: median tumor weight (est.), dose: 7.5 mg/kg/injection, schedule: Q07DX005 (ip), vehicle: other): 36 % of control

SMILES: CC(=Nc1ccccc1)C1=C(O)C(Cc2ccccc2)NC1=O (configuration not stated)
- T/C [5]: 218 % of control and 100 % of control
- T/C [6]: 89 % of control
- T/C [7]: 211 % of control and 85 % of control
- T/C [8]: 39 % of control and 62 % of control

SMILES: O=c1[nH]cnc2c1ccn2C1OC(CO)C(O)C1O (configuration not stated)
- T/C (endpoint: median tumor weight change, dose: 24.0 mg/kg/injection, schedule: Q01DX001 (ip), vehicle: saline): 74 % of control
- T/C (endpoint: median tumor weight change, dose: 48.0 mg/kg/injection, schedule: Q01DX001 (ip), vehicle: saline): 62 % of control

SMILES: O=C1N(Cl)C(=O)C(c2ccc(Cl)cc2)(c2ccc(Cl)cc2)N1Cl
- T/C [5]: 98 % of control
- T/C [9]: 119 % of control
- T/C [6]: 91 % of control
- T/C [10]: 104 % of control
- T/C [7]: 113 % of control
- T/C [8]: 43 % of control
- T/C (endpoint: median tumor weight change, dose: 12.5 mg/kg/injection, schedule: Q01DX001 (ip), vehicle: saline with Tween-80): 98 % of control
- T/C (endpoint: median tumor weight change, dose: 25.0 mg/kg/injection, schedule: Q01DX001 (ip), vehicle: saline with Tween-80): 68 % of control
- T/C (endpoint: median tumor weight change, dose: 50.0 mg/kg/injection, schedule: Q01DX001 (ip), vehicle: saline with Tween-80): 71 % of control
- T/C (endpoint: median tumor weight change, dose: 100.0 mg/kg/injection, schedule: Q01DX001 (ip), vehicle: saline with Tween-80): 45 % of control and 48 % of control
- T/C (endpoint: median tumor weight change, dose: 200.0 mg/kg/injection, schedule: Q01DX001 (ip), vehicle: saline with Tween-80): 44 % of control and 53 % of control
- T/C (endpoint: median tumor weight change, dose: 400.0 mg/kg/injection, schedule: Q01DX001 (ip), vehicle: saline with Tween-80): 24 % of control

SMILES: ClC1C(Cl)C(Cl)C(Cl)C(Cl)C1Cl (configuration not stated)
- T/C (endpoint: median tumor weight change, dose: 62.5 mg/kg/injection, schedule: Q01DX001 (ip), vehicle: Klucel (hydroxypropylcellulose) (HPC)): 169 % of control
- T/C (endpoint: median tumor weight change, dose: 125.0 mg/kg/injection, schedule: Q01DX001 (ip), vehicle: Klucel (hydroxypropylcellulose) (HPC)): 105 % of control
- T/C (endpoint: median tumor weight change, dose: 250.0 mg/kg/injection, schedule: Q01DX001 (ip), vehicle: Klucel (hydroxypropylcellulose) (HPC)): 115 % of control
- T/C (endpoint: median tumor weight change, dose: 500.0 mg/kg/injection, schedule: Q01DX001 (ip), vehicle: Klucel (hydroxypropylcellulose) (HPC)): 64 % of control

SMILES: C=CC(=O)NCNC(=O)C=C
- T/C (endpoint: median tumor weight (est.), dose: 12.5 mg/kg/injection, schedule: Q07DX005 (ip), vehicle: suspension in saline): 104 % of control
- T/C (endpoint: median tumor weight (est.), dose: 25.0 mg/kg/injection, schedule: Q07DX005 (ip), vehicle: suspension in saline): 85 % of control
- T/C (endpoint: median tumor weight (est.), dose: 50.0 mg/kg/injection, schedule: Q07DX005 (ip), vehicle: suspension in saline): 80 % of control
- T/C (endpoint: median tumor weight (est.), dose: 100.0 mg/kg/injection, schedule: Q07DX005 (ip), vehicle: suspension in saline): 43 % of control
- T/C (endpoint: median tumor weight (est.), dose: 200.0 mg/kg/injection, schedule: Q07DX005 (ip), vehicle: suspension in saline): 32 % of control
- T/C (endpoint: median tumor weight (est.), dose: 400.0 mg/kg/injection, schedule: Q07DX005 (ip), vehicle: suspension in saline): 9 % of control
- T/C (endpoint: median tumor weight change, dose: 62.5 mg/kg/injection, schedule: Q01DX001 (ip), vehicle: saline): 78 % of control
- T/C (endpoint: median tumor weight change, dose: 62.5 mg/kg/injection, schedule: Q01DX001 (ip), vehicle: suspension in saline): 90 % of control
- T/C (endpoint: median tumor weight change, dose: 72.0 mg/kg/injection, schedule: Q01DX001 (ip), vehicle: saline): 105 % of control
- T/C (endpoint: median tumor weight change, dose: 109.0 mg/kg/injection, schedule: Q01DX001 (ip), vehicle: saline): 150 % of control
- T/C (endpoint: median tumor weight change, dose: 125.0 mg/kg/injection, schedule: Q01DX001 (ip), vehicle: saline): 46 % of control
- T/C (endpoint: median tumor weight change, dose: 125.0 mg/kg/injection, schedule: Q01DX001 (ip), vehicle: suspension in saline): 42 % of control
- T/C (endpoint: median tumor weight change, dose: 165.0 mg/kg/injection, schedule: Q01DX001 (ip), vehicle: saline): 71 % of control
- T/C (endpoint: median tumor weight change, dose: 250.0 mg/kg/injection, schedule: Q01DX001 (ip), vehicle: saline): 50 % of control and 74 % of control
- T/C (endpoint: median tumor weight change, dose: 250.0 mg/kg/injection, schedule: Q01DX001 (ip), vehicle: suspension in saline): -28 % of control
- T/C (endpoint: median tumor weight change, dose: 379.0 mg/kg/injection, schedule: Q01DX001 (ip), vehicle: saline): 62 % of control

SMILES: CC12CCC3C(CCC4CC(OC(=O)Cc5ccc(N(CCCl)CCCl)cc5)CCC43C)C1CCC(=O)N2 (configuration not stated)
- T/C (endpoint: median tumor weight (est.), dose: 0.75 mg/kg/injection, schedule: Q07DX005 (ip), vehicle: saline with Tween-80): 63 % of control
- T/C (endpoint: median tumor weight (est.), dose: 1.5 mg/kg/injection, schedule: Q07DX005 (ip), vehicle: saline with Tween-80): 109 % of control
- T/C (endpoint: median tumor weight (est.), dose: 3.0 mg/kg/injection, schedule: Q07DX005 (ip), vehicle: Klucel (hydroxypropylcellulose) (HPC)): 91 % of control
- T/C (endpoint: median tumor weight (est.), dose: 3.0 mg/kg/injection, schedule: Q07DX005 (ip), vehicle: saline with Tween-80): 99 % of control
- T/C (endpoint: median tumor weight (est.), dose: 6.0 mg/kg/injection, schedule: Q07DX005 (ip), vehicle: Klucel (hydroxypropylcellulose) (HPC)): 41 % of control
- T/C (endpoint: median tumor weight (est.), dose: 6.0 mg/kg/injection, schedule: Q07DX005 (ip), vehicle: saline with Tween-80): 55 % of control
- T/C (endpoint: median tumor weight (est.), dose: 12.0 mg/kg/injection, schedule: Q07DX005 (ip), vehicle: Klucel (hydroxypropylcellulose) (HPC)): 30 % of control
- T/C (endpoint: median tumor weight (est.), dose: 12.0 mg/kg/injection, schedule: Q07DX005 (ip), vehicle: saline with Tween-80): 12 % of control
- T/C (endpoint: median tumor weight (est.), dose: 24.0 mg/kg/injection, schedule: Q07DX005 (ip), vehicle: Klucel (hydroxypropylcellulose) (HPC)): 8 % of control
- T/C (endpoint: median tumor weight (est.), dose: 24.0 mg/kg/injection, schedule: Q07DX005 (ip), vehicle: saline with Tween-80): 1 % of control

SMILES: C[n+]1ccc(Nc2ccc(NC(=O)c3ccc(Nc4cc[n+](C)c5ccc(N)cc45)cc3)cc2)cc1
- T/C (endpoint: median tumor weight (est.), dose: 16.0 mg/kg/injection, schedule: Q07DX005 (ip), vehicle: Klucel (hydroxypropylcellulose) (HPC)): 51 % of control and 65 % of control
- T/C (endpoint: median tumor weight (est.), dose: 32.0 mg/kg/injection, schedule: Q07DX005 (ip), vehicle: Klucel (hydroxypropylcellulose) (HPC)): 24 % of control and 25 % of control

SMILES: NCCCNCCSP(=O)(O)O
- T/C [9]: 39 % of control
- T/C [6]: 33 % of control
- T/C [10]: 50 % of control
- T/C [7]: 28 % of control
- T/C [8]: 42 % of control

SMILES: CCN(CC)CCNc1ccc(C)c2sc3ccccc3c(=O)c12
- T/C [1]: 156 % of control
- T/C [2]: 198 % of control
- T/C [3]: 166 % of control
- T/C [4]: 76 % of control
- T/C (endpoint: median tumor weight (est.), dose: 200.0 mg/kg/injection, schedule: Q07DX005 (ip), vehicle: saline): 42 % of control
